Laboratory results as given in US9340559B2, “Proteasome inhibitor delanzomib for use in the treatment of lupus” (Cephalon, Inc., priority 2011, dated 2016).

How the values were obtained:
Format in all cases: in vivo, mouse
MRL/lpr mice = assay: Serum C3 complement ELISA, MRL/lpr mice; conditions: treated orally; day 99
Excerpt: Mice are tracked on an individual basis.

NZM mice [1] = assay: Renal histopathology scoring (kidney IC-GN), NZM mice (Example 2)
Experimental: (§1) For histological analyses, the left kidney from each animal is removed and fixed in 10% buffered neutral formalin (EMD) for 48 hours on an orbital rocker at 25° C., then washed overnight with running dH2O and stored in 70% ethanol at 4° C. until ready to be processed. Kidney stains used for histological analyses included hematoxylin and eosin (H&E), Periodic Acid Schiff (PAS) and Trichrome stains (Wistar Institute, Philadelphia, Pa.). All 3 stained sections are used by the pathologist for scoring purposes. All histological scoring is performed blinded and by an independent board certified veterinary medical pathologist (Julie Engiles, VMD, DACVP). Multiple stains are used to determine score values. Images in FIG. 39 show worst affected area of section selected blindly by the pathologist.
Kidney IC-GN Scoring Method (Smith, Dong et al. 2007):
1. Glomerular cellularity—Score 1-5: Null, low, moderate, high, severe
2. Glomerular necrosis—Score 1-5: Null, low, moderate, high, severe
3. Glomerulosclerosis—Score 1-5: Null, low, moderate, high, severe
4. Interstitial infiltration—Score 1-5: Null, low, moderate, high, severe
5. Tubular atrophy—Score 1-5: Null, low, moderate, high, severe
6. Interstitial fibrosis—Score 1-5: Null, low, moderate, high, severe
7. Vasculitis—Score 1-5: Null, low, moderate, high, severe
Specific Pathologist Definitions: • Necrosis is defined by the presence of nuclear debris/pyknosis within the glomerular tuft indicative of “necrosis.” In many samples, this is a very mild, rare finding within only a very few segments of the glomerular tuft. Also consider effacement of the glomerular tuft by PAS positive, Trichrome negative material necrosis. • Glomerular sclerosis is defined by increased fibroplasia or fibrosis within the glomerular tuft or capsule. […] Most of the vascular changes are mild and could be considered “arteriosclerosis” characterized by proliferation of the smooth muscle cells, and hyalinization of the extracellular matrix. This change may reflect hypertension secondary to glomerular pathology. In very few animals is there overt “vasculitis.” Most inflammatory changes are within the walls of the blood vessels, with little to no damage to the endothelium, and no overt hemorrhage/fibrin leakage. Many also have perivascular rims of fibroblasts.

NZM mice [2] = assay: Renal histopathology blinded scores, NZM mice (Example 3)
Experimental: FIG. 52 depicts renal histopathology scores from NZM mice (H&E stained paraffin wax embedded kidney tissues sections from 25 week old mice).
as §1
Kidney IC-GN Scoring Method (Smith, Dong et al. 2007): […]

NZM mice [3] = assay: Serum IL-12 by Luminex, NZM mice (Example 3)
Experimental: FIG. 48 depicts serum IL-12 concentration in NZM mice. Mean±SEM values for the concentration of mouse serum IL-12 from treated NZM mice at the end of the study.
For the processing of serum samples for cytokine analysis, frozen plasma at −80° C. is thawed on ice, vortexed, and centrifuged for 10 minutes (10,000×g) to remove debris and aggregates. A total of 25-50 μL of serum is used for Luminex assays following the manufacturer's instructions. Ten different mouse cytokines are measured using the mouse cytokine 20-plex bead kit (Invitrogen, Carlsbad, Calif., no. LMC0006). Briefly, filter plates (Millipore, Billerica, Mass., no. MAIPSWU10), are pre-wet with 200 μL of wash solution (kit component) and 25 μL of beads are added per well. Serum samples are diluted and a total volume of 50 μL is added per well (ie, 25 μL of sample serum plus 25 μL of assay diluent as provided by the manufacturer). Plates with beads are incubated for 2 hours at room temperature (RT) on an orbital shaker in the dark. At the end of the incubation, plate(s) are washed twice in kit buffer, secondary biotinylated antibody is added at a 1:10 dilution (100 μL) in biotin diluent provided with the kit. Plates are incubated at RT for 1 hour in the dark then washed twice in kit buffer. Strepavidin in assay diluent is added at 100 μL per well, then incubated for 30 minutes at RT in the dark. The plates are washed 3 times then 100 μL of kit wash solution is added and agitated for 2-3 minutes at RT in the dark. Plates are run immediately following this incubation period on a Luminex xMAP 200 unit with data acquisition and analysis software (Invitrogen, San Diego, Calif., no. MAP0200). All bead washing is performed using a vacuum manifold unit (Pall, Ann Arbor, Mich. no. 5017). For all cytokine Luminex assays, values below the limit of detection set by the lowest point along the standard or set by the manufacturer are considered out of range and are not estimated, but assumed the lowest point along the standard curve for that particular assay.

[4] = COMPOUND A once and twice weekly

CC(C)C[C@H](NC(=O)[C@@H](NC(=O)c1cccc(-c2ccccc2)n1)[C@@H](C)O)B(O)O [COMPOUND A, [(1R)-1-[[(2S,3R)-3-hydroxy-2-[6-phenyl-pyridine-2-carbonyl)amino]-1-oxobutyl]amino]-3-methylbutylboronic acid]
serum C3 concentration increase over vehicle (MRL/lpr mice): 128% | p, glomerular cellularity (GC) vs G3 Bortezomib 0.3 mg/kg 1× wk (NZM mice [1]; 3 mg/kg 1× wk): p < 0.01 | p, glomerular cellularity (GC) vs G6 DEX 1.5 mg/kg 1× wk (NZM mice [1]; 3 mg/kg 1× wk): p < 0.01 | p, glomerular cellularity (GC) vs G7 Vehicle (NZM mice [1]; 3 mg/kg 1× wk): p < 0.001 | p, glomerular necrosis (GN) vs G3 Bortezomib 0.3 mg/kg 1× wk (NZM mice [1]; 3 mg/kg 1× wk): p < 0.05 | p, glomerular necrosis (GN) vs G6 DEX 1.5 mg/kg 1× wk (NZM mice [1]; 3 mg/kg 1× wk): p < 0.01 | p, glomerulosclerosis (GS) vs G3 Bortezomib 0.3 mg/kg 1× wk (NZM mice [1]; 3 mg/kg 1× wk): p < 0.001 | p, glomerulosclerosis (GS) vs G6 DEX 1.5 mg/kg 1× wk (NZM mice [1]; 3 mg/kg 1× wk): p < 0.001 | p, glomerulosclerosis (GS) vs G7 Vehicle (NZM mice [1]; 3 mg/kg 1× wk): p < 0.01 | p, interstitial fibrosis (IF) vs G3 Bortezomib 0.3 mg/kg 1× wk (NZM mice [1]; 3 mg/kg 1× wk): p < 0.01 | p, interstitial fibrosis (IF) vs G6 DEX 1.5 mg/kg 1× wk (NZM mice [1]; 3 mg/kg 1× wk): p < 0.001 | p, interstitial fibrosis (IF) vs G7 Vehicle (NZM mice [1]; 3 mg/kg 1× wk): p < 0.01 | p, interstitial infiltration (II) vs G6 DEX 1.5 mg/kg 1× wk (NZM mice [1]; 3 mg/kg 1× wk): p < 0.01 | p, interstitial infiltration (II) vs G7 Vehicle (NZM mice [1]; 3 mg/kg 1× wk): p < 0.05 | p, tubular atrophy (TA) vs G3 Bortezomib 0.3 mg/kg 1× wk (NZM mice [1]; 3 mg/kg 1× wk): p < 0.001 | p, tubular atrophy (TA) vs G6 DEX 1.5 mg/kg 1× wk (NZM mice [1]; 3 mg/kg 1× wk): p < 0.001 | p, tubular atrophy (TA) vs G7 Vehicle (NZM mice [1]; 3 mg/kg 1× wk): p < 0.001 | p, vasculitis (VA) vs G6 DEX 1.5 mg/kg 1× wk (NZM mice [1]; 3 mg/kg 1× wk): p < 0.01 | p, vasculitis (VA) vs G7 Vehicle (NZM mice [1]; 3 mg/kg 1× wk): p < 0.01 | p, glomerular cellularity (GC) vs G3 Bortezomib 0.3 mg/kg 1× wk (NZM mice [1]; 3 mg/kg 2× wk): p < 0.01 | p, glomerular cellularity (GC) vs G6 DEX 1.5 mg/kg 1× wk (NZM mice [1]; 3 mg/kg 2× wk): p < 0.01 | p, glomerular cellularity (GC) vs G7 Vehicle (NZM mice [1]; 3 mg/kg 2× wk): p < 0.001 | p, glomerular necrosis (GN) vs G3 Bortezomib 0.3 mg/kg 1× wk (NZM mice [1]; 3 mg/kg 2× wk): p < 0.05 | p, glomerular necrosis (GN) vs G6 DEX 1.5 mg/kg 1× wk (NZM mice [1]; 3 mg/kg 2× wk): p < 0.01 | p, glomerulosclerosis (GS) vs G3 Bortezomib 0.3 mg/kg 1× wk (NZM mice [1]; 3 mg/kg 2× wk): p < 0.001 | p, glomerulosclerosis (GS) vs G6 DEX 1.5 mg/kg 1× wk (NZM mice [1]; 3 mg/kg 2× wk): p < 0.001 | p, glomerulosclerosis (GS) vs G7 Vehicle (NZM mice [1]; 3 mg/kg 2× wk): p < 0.01 | p, interstitial fibrosis (IF) vs G3 Bortezomib 0.3 mg/kg 1× wk (NZM mice [1]; 3 mg/kg 2× wk): p < 0.01 | p, interstitial fibrosis (IF) vs G6 DEX 1.5 mg/kg 1× wk (NZM mice [1]; 3 mg/kg 2× wk): p < 0.001 | p, interstitial fibrosis (IF) vs G7 Vehicle (NZM mice [1]; 3 mg/kg 2× wk): p < 0.01 | p, interstitial infiltration (II) vs G6 DEX 1.5 mg/kg 1× wk (NZM mice [1]; 3 mg/kg 2× wk): p < 0.01 | p, interstitial infiltration (II) vs G7 Vehicle (NZM mice [1]; 3 mg/kg 2× wk): p < 0.05 | p, tubular atrophy (TA) vs G3 Bortezomib 0.3 mg/kg 1× wk (NZM mice [1]; 3 mg/kg 2× wk): p < 0.01 | p, tubular atrophy (TA) vs G6 DEX 1.5 mg/kg 1× wk (NZM mice [1]; 3 mg/kg 2× wk): p < 0.001 | p, tubular atrophy (TA) vs G7 Vehicle (NZM mice [1]; 3 mg/kg 2× wk): p < 0.001 | p, vasculitis (VA) vs G7 Vehicle (NZM mice [1]; 3 mg/kg 2× wk): p < 0.05 | glomerular cellularity reduction vs vehicle (NZM mice [1]; [4]): ~50% | glomerulosclerosis reduction vs vehicle (NZM mice [1]; [4]): ~53% | interstitial fibrosis reduction vs vehicle (NZM mice [1]; [4]): ~55% | interstitial infiltration reduction vs vehicle (NZM mice [1]; [4]): 43-46% | tubular atrophy reduction vs vehicle (NZM mice [1]; [4]): 55-59% | vasculitis reduction vs vehicle (NZM mice [1]; [4]): 51-55% | Kidney glomerular cellularity, percent change vs vehicle (NZM mice [1]; G1 3 mg/kg ip, 1× wk): −48% | Kidney glomerular necrosis, percent change vs vehicle (NZM mice [1]; G1 3 mg/kg ip, 1× wk): −29% | Kidney glomerulosclerosis, percent change vs vehicle (NZM mice [1]; G1 3 mg/kg ip, 1× wk): −54% | Kidney interstitial fibrosis, percent change vs vehicle (NZM mice [1]; G1 3 mg/kg ip, 1× wk): −56% | Kidney interstitial infiltration, percent change vs vehicle (NZM mice [1]; G1 3 mg/kg ip, 1× wk): −46% | Kidney tubular atrophy, percent change vs vehicle (NZM mice [1]; G1 3 mg/kg ip, 1× wk): −59% | Kidney vasculitis, percent change vs vehicle (NZM mice [1]; G1 3 mg/kg ip, 1× wk): −55% | Kidney glomerular cellularity, percent change vs vehicle (NZM mice [1]; G2 3 mg/kg ip, 2× wk): −50% | Kidney glomerular necrosis, percent change vs vehicle (NZM mice [1]; G2 3 mg/kg ip, 2× wk): −29% | Kidney glomerulosclerosis, percent change vs vehicle (NZM mice [1]; G2 3 mg/kg ip, 2× wk): −53% | Kidney interstitial fibrosis, percent change vs vehicle (NZM mice [1]; G2 3 mg/kg ip, 2× wk): −55% | Kidney interstitial infiltration, percent change vs vehicle (NZM mice [1]; G2 3 mg/kg ip, 2× wk): −43% | Kidney tubular atrophy, percent change vs vehicle (NZM mice [1]; G2 3 mg/kg ip, 2× wk): −55% | Kidney vasculitis, percent change vs vehicle (NZM mice [1]; G2 3 mg/kg ip, 2× wk): −51% | decrease in renal histopathology score over several parameters vs vehicle (NZM mice [1]; mouse, in vivo): 45-55% | combined average renal histopathology blinded score decrease vs vehicle (NZM mice [2]; Group 1 (regimen: Table 42)): 53% | combined average renal histopathology blinded score decrease vs vehicle (NZM mice [2]; Group 2 (regimen: Table 42)): 43.6% | combined average renal histopathology blinded score decrease vs vehicle (NZM mice [2]; Group 3 (regimen: Table 42)): 18.9% | combined average renal histopathology blinded score decrease vs vehicle (NZM mice [2]; Group 4 (regimen: Table 42)): 48.7% | combined average renal histopathology blinded score decrease vs vehicle (NZM mice [2]; Group 5 (regimen: Table 42)): 40.5% | serum IL-12 decrease vs vehicle (NZM mice [3]; Group 1 (regimen: Table 42)): 92.8% | serum IL-12 decrease vs vehicle (NZM mice [3]; Group 2 (regimen: Table 42)): 76.6% | serum IL-12 decrease vs vehicle (NZM mice [3]; Group 4 (regimen: Table 42)): 75.7% | serum IL-12 decrease vs vehicle (NZM mice [3]; Group 5 (regimen: Table 42)): 70.8%
